Test results: US20260265525A1, “DEVELOPMENT OF HIGHLY FLUOROGENIC STYRENE PROBES FOR VISUALIZING RNA IN LIVE CELLS” (UNIVERSITY OF SOUTHERN CALIFORNIA, priority 2023, published 2026)

Key:
[1] = test system: torula yeast type IV RNA; assay: Quantum yield and fluorescence enhancement of dyes incubated with RNA; format: binding; conditions: for quantum yield in RNA solution: 10 μM dye, 200 μg/mL RNA in T.E. buffer; for fluorescence enhancement upon binding RNA: ratio of quantum yield of dye in RNA solution over free dye
Method: To determine the fluorescence change of 1a-1d in the presence of RNA, the dyes (10 μM) were incubated with torula yeast type IV RNA in T.E. buffer and measured the spectral and photophysical parameters as described above. Fold-enhancement values were calculated by taking the ratio of the quantum yield of dyes in RNA solution over free dyes.
(§1) Coumarin 6 was used as a reference dye for MPI, 1a, and 1b and Rhodamine 6G was used as a reference for 1c and 1d. Absorption spectra were collected by Shimadzu UV-1800 spectrophotometer. Samples were loaded in plastic disposable cuvette. Emission spectra were obtained by Photon Technology International QuantaMaster model C-60 Fluorimeter in 1×1 cm^2 quartz cuvettes. Fluorescence quantum yields were then calculated according to the method by Lawson-wood, Upstone, and Evans. (58) The torula yeast type IV RNA (Sigma) solution was prepared as a 200 μg/mL solution in T.E. buffer (Tris-HCl, EDTA, pH 7.6, Bioworld) without sonicating to avoid shearing of nucleic acids. All measurements were taken using samples with a final dye concentration of 10 μM.

[2] = Spectral and photophysical characterization of free dyes in T.E. buffer; format: physicochemical; conditions: for Stokes shift / molar absorptivity: T.E. buffer; for emission wavelength (maximum) / fluorescence quantum yield of free dye / maximum absorbance wavelength: free dye in T.E. buffer
Method: After the synthesis of the styrene dyes, their photophysical properties were evaluated. The spectral and photophysical properties (absorption, emission, molar absorptivity (ε), fluorescence quantum yield (ΦDF), and fluorescence enhancement) of probes 1a-1d were measured in DMSO and T.E. buffer (Tris-HCl, 1 mM EDTA, pH=7.5). FIG. 2D provides measurements of the fluorescent enhancement for several of the fluorescent probes.
as §1

[3] = test system: DNA from calf thymus; assay: Fluorescence titration of 1c with nucleic acids or BSA; format: binding; conditions: fluorogenic response with DNA vs RNA
Method: Solutions of torula yeast RNA type IV (RNA mixture) and DNA from calf thymus (Sigma) were prepared and stored at 4° C. overnight. Bovine serum albumin (BSA, Thermo Fisher) and Baker's yeast RNA (rRNA, Sigma) solutions were prepared at 2 h before testing. 100 μL of 1 μM 1c were diluted by corresponding substrates solution reaching concentrations ranging from 0 to 1000 μg/mL of nucleic acids or BSA. The resulting mixtures were placed in a 96-well opaque plate. The plate with the mixture was gently shaken for 5 min before being evaluated by a microplate reader.

[4] = test system: PFA-fixed HeLa cells; assay: Fixed-cell imaging; format: cell-based; conditions: HeLa fixed with 4% PFA
Method: HeLa cells were cultured on 6-well plates containing glass coverslips and incubated at 37° C. overnight or until fully adherent. After removing the medium and washing with DPBS, the cells were fixed with 4% paraformaldehyde for 10 min at ambient temperature. After fixation, the cells were rinsed with PBS and incubated with dye solutions in PBS for 30 min at ambient temperature. After incubation, the dye solutions were removed and cells were gently washed with PBS three times. The coverslips were mounted onto glass slides, sealed, and analyzed using confocal microscopy.

[5] = test system: fixed HeLa cells; assay: Ribonuclease (RNase) digest experiment; format: cell-based; conditions: fixed cells treated with RNase
Method: HeLa cells were cultured in six-well plates with glass coverslips and incubated at 37° C. overnight to totally adherent. The cells were fixed according to the protocol described above with minor modifications. A solution of 4% paraformaldehyde+0.1% Triton-X was prepared in PBS and used to fix and permeabilize HeLa cells. The cells were incubated with this solution for 20 min at room temperature. After rinsing the cells with PBS, the cells were stained with 1 μM 1c, 1d, or SYTO in PBS for 30 min at room temperature. After removing the staining solution, 0.5 mL of RNase ([…]) and PBS (negative control) was added into each respective well and incubated for 6 h. After incubation, the medium was removed, and the cells were thoroughly washed with PBS three times. The glass coverslips were mounted onto glass slides, sealed, and analyzed using confocal microscopy.

[6] = test system: rRNA; assay: Native-PAGE gel staining; design: species or system Baker's yeast
Method: 1 L of 10×TBE running buffer was prepared by mixing 108 g of Tris Base, 55 g of boric acid, and 40 mL of 0.5 M EDTA (Apex). The combined solution was diluted to 1 L by filtered H2O. 14 mL of 8% Native-PAGE gel was prepared by mixing 0.7 mL of 10×TBE buffer, 0.14 mL of 10% APS buffer (Bio-Rad), and 3.73 mL of 30% acrylamide solution. The mixture was diluted to 14 mL with filtered water. 28 μL of TEMED (Sigma) was added to the mixture. The gel mixture was transferred into the casting frame placed in a precooled gel chamber. An 18-well cast was put on the top and left for polymerization for 15 min on ice. The gel chamber was filled with cold 0.5×TBE running buffer. The gel was pre-run at 150 V for 40 min. The RNA marker mixture was loaded (5 μL micro-RNA marker+0.4 μL low range marker (Bio-Rad) for one well). 5 μL of rRNA sample was loaded to reach rRNA amount as 1 and 10 μg. The RNA marker and rRNA sample loading had four repeats on the same gel. The gel was run at 150 V for 30 min. The cut gels were stained and shaken in 25 mL of 1×SYBR Gold (Thermo Fisher), 2 μM 1c, 20 μM 1c, and 40 μM 1c for 15 min. The gels were de-stained with 0.5×TBE buffer and shaken for 10 min. The buffer was removed, and the gels were imaged using an Amersham Typhoon Biomolecular […].

[7] = test system: live HeLa cells; assay: Live-cell and time-resolved confocal imaging; format: cell-based; conditions: for cellular localization of fluorescence signals: live HeLa, 20 μM, 30 min; for time after addition at which nucleoli could be clearly discerned: live cells, dye in medium
Method: HeLa cells were cultured at a density of 7000 cells/well on chambered glass sides and incubated at 37° C. overnight or until fully adherent. After removing the medium and washing with DPBS (Thermo Fisher), the cells were incubated with dyes in PBS (Thermo Fisher) for 30 min at 37° C. with 5% CO2 on the microscope stage and analyzed directly. Fluorescence images were acquired using a confocal microscope (Leica SP8, Leica Microsystems) and analyzed using ImageJ. MPI (20 μM) was excited at 440 nm, SYTO RNASelect (0.1-1 μM, Thermo Fisher) was excited at 490 nm, 1c (10 nM-20 μM) was excited at 550 nm, and 1d (20 μM) was excited at 500 nm.
HeLa cells were cultured on eight-well chambered glass slides (iBidi μ-slides) and incubated overnight at 37° C. with 5% CO2 until totally adherent. Staining solutions for each dye were prepared in serum-free DMEM and kept warm at 37° C. The cells were monitored from 0 to 30 min, where t=0 is the time right before the addition of the dye. Images were acquired at t=0, 0.5, 1, 2, 5, 10, 15, 20, 25, and 30 min for each dye. Fluorescence images were analyzed and quantified with ImageJ.

[8] = test system: RNA/spermine condensates; assay: Staining and FLIM imaging of RNA-spermine condensates; design: species or system torula yeast; conditions: 10 μM
Method: A 1 wt % stock solution of torula yeast RNA type IV was prepared in nuclease-free water and stored in multiple aliquots at −20° C. Final concentrations of RNA ranged from 0.02 to 0.4 wt %. A 1 wt % stock solution of spermine was prepared in deionized water and stored at 4° C. The spermine (Sigma) concentration was fixed at 0.1 wt %. Dye 1c was prepared as 10 mM stock solutions in DMSO. Condensates were prepared in a 5 mM HEPES (pH 7.4, VWR), 1 mM MgCl2 buffer. Stock solutions were added in the following order for the preparation of each sample: deionized water, HEPES, MgCl2, RNA, and spermine. Samples were mixed via gentle pipetting in between the addition of each component. RNA condensates were incubated with 10 μM 1c for 1 min at room temperature. To image the condensates, 20 μL of the incubated sample was added onto a glass coverslip and mounted onto a glass slide. Images were acquired using fluorescence confocal microscopy and FLIM.

[9] = test system: RNA mixture (torula yeast RNA type IV); assay: Comparison of fluorogenic response with SYTO RNASelect; format: binding; conditions: same RNA species
Method: 100 μL of 1 μM 1c and SYTO RNASelect were diluted by 100 μL solutions of RNA mixture to reach final concentrations ranging from 0 to 1000 μg/mL. The resulting mixtures were placed in a 96-well opaque plate. The plate with the mixture was gently shaken for 5 min before being evaluated by a microplate reader (SpectraMax iD5).

[10] = previously reported; cited from earlier work

Compound	fluorescence enhancement upon binding RNA [1] [fold]	Stokes shift [2] [nm]	molar absorptivity [2] [M⁻¹ cm⁻¹]	emission wavelength (maximum) [2] [nm]	fluorescence quantum yield of free dye [2] [%]	maximum absorbance wavelength [2] [nm]	quantum yield in RNA solution [1] [%]	localization of fluorescence signals in fixed cells [4]	cellular localization of fluorescence signals [7]	time after addition at which nucleoli could be clearly discerned [7] [s]	absorption wavelength (reported) [10]	emission wavelength (reported) [10]	also measured
C[n+]1ccc(/C=C/c2c[nH]c3ccccc23)cc1.[I-] [IN]											~ 440 nm	~ 540 nm	
methyl pyridinium indole [MPI]											~ 440 nm	~ 540 nm	fluorescence quantum yield (reported) [10]: 32%

More lines, main results first:

fluorescence enhancement upon binding RNA [1] [fold]	Stokes shift [2] [nm]	molar absorptivity [2] [M⁻¹ cm⁻¹]	emission wavelength (maximum) [2] [nm]	fluorescence quantum yield of free dye [2] [%]	maximum absorbance wavelength [2] [nm]	Compound	quantum yield in RNA solution [1] [%]	localization of fluorescence signals in fixed cells [4]	cellular localization of fluorescence signals [7]	time after addition at which nucleoli could be clearly discerned [7] [s]	absorption wavelength (reported) [10]	emission wavelength (reported) [10]	also measured
104	162	20600	584	0.12	422	Cn1c(/C=C/c2cc[n+](C)cc2)cc2ccccc21.[I-] [Dye 1a]	9.9						
33	142	24400	568	0.12	410	C[n+]1ccc(/C=C/c2cc3ccccc3[nH]2)cc1.[I-] [Dye 1b]	3.9						
490	86	27500	596	0.10	510	C[n+]1ccc(/C=C/c2ccc3ccccn23)cc1.[I-] [Dye 1c]	49	predominantly coming from the nucleoli and cytoplasm	primarily within the nucleoli and cytoplasm	30			selectivity for RNA over DNA in vitro [3]: moderate selectivity for RNA over DNA; dependence of nucleolar staining on RNA [5]: RNA-dependent; sensitivity of gel staining versus SYBR Gold [6]: lower than the commercial standard, SYBR Gold; staining of RNA in PAGE-gels [6]: can stain RNA in PAGE-gels; lowest concentration used to resolve nucleoli [7]: 10 nM; concentration sufficient for visualizing nucleoli (dose-response study) ([7]; live HeLa cells): nanomolar concentrations; partitioning into RNA coacervates [8]: readily partitions into RNA coacervates; fluorogenic response compared with SYTO RNASelect [9]: significantly higher fluorogenic responses than SYTO™ RNASelect
132	86	34600	572	0.38	486	C[n+]1ccc(/C=C/c2ccn3ccccc23)cc1.[I-] [Dye 1d]	50	predominantly coming from the nucleoli and cytoplasm	primarily within the nucleoli and cytoplasm	30			
